Patent US5229265A, “Process for analyzing clastogenic agents” (Litron Laboratories, priority 1990, dated 1993)
“And” between values parts separate entries of the source, which are not always exact repeats. Identical values can stand only once. “Also recorded” adds a separate entry of the source.

Assays:
[1] = test system: micronucleated cells in blood; test: Cyclophosphamide dose response, flow cytometric micronucleus assay; type: in vivo, mouse
Protocol: However, an effective flow cytometry based micronulceus assay should also be able to reflect changes in the number of MN-cells at different doses of a clastogen. Accordingly, another example of this embodiment involves a cyclophosphamide dose response analysis. Ten mice were divided into sets of two for this experiment. An initial blood sample was taken (t=0hr) for each mouse. The two control mice were dosed with saline while the other sets received different doses of cyclophosphamide (50,100,150 or 200 μg/g body weight). Each set was treated twice, at t=0 and t=48 hrs. Final blood samples were obtained at t=96hrs, and were fixed and stained with Hoechst 33258 to which PC microspheres had been added. The position of the microsphere peak was initially calibrated using the malaria infected RBCs as the primary standard. Each sample was then checked to insure that the microsphere peak was still at the calibrated position before acquisition. Some slight adjustments were necessary in the gains during the course of the analysis, during which ten t=0 samples and ten t=96 samples were run. One million total cells were counted for each sample. Gates were set on forward scatter (e.g. FIG. 3), side scatter (before the major cell peak), and a red gate (e.g. as shown in FIG. 13). These gates insured that only red blood cells and their associated micronuclei would be acquired. Following acquisition, the number of micronucleated cells at t=0 were subtracted from the number at t=96hr for each mouse. The average for the saline controls were slightly negative, and were recorded as zero in this graph. […] In addition, the high doses were approaching 1500 events more than the zero (control) values. […] For comparison, the 96hr samples were also hand counted and the number of MNs/1000 PCEs were determined.

[2] = test system: micronucleated cells in blood; test: Flow cytometric micronucleus assay, dual parameter data, MMS, Hoechst 33258 & propidium iodide, per 500,000 cells; type: in vivo, mouse; details: MMS 100 μg/g body weight IP at 0 and 48 hours
Excerpt: The fixation procedure can affect the permeability of a cell, cell morphology and the amount of undesirable autofluorescence that is associated with a cell preparation. Fixing procedures can cause changes in cell structure (that are reflected in the light scatter patterns) as well as changes in the distribution of the dye molecules within the cells (resulting in altered fluorescence emission patterns). Practioners of the art are unaware that fixing the cells at ultralow temperatures circumvents these fixation problems and provides cells that are suitable for subsequent staining and FCM analysis. […] Cells fixed in this way can be stored at 0° C. for weeks with no significant deterioration and are ready for staining and MN analysis.
When two dyes are used for simultaneous micronucleus and PCE discrimination, the cell suspension is prepared as follows: The Hoechst 33258 working solution described above is prepared and is filtered through an 0.2 micron Acro-disk (Gilman Sciences). […] When blood from a malaria (P. berghei) infected mouse was fixed and stained by this procedure, the bivariate pattern shown in FIG. 1B resulted, in which a stronger red fluorescence signal was obtained. […] The pH of the stained solution is important for good fluorescence emission profiles and resolution of the different cell populations. […]

SMILES	dose response ([1]; cyclophosphamide 50, 100, 150 or 200 μg/g body weight at t=0 and t=48 hrs)	clastogenic action at the lower doses ([1]; cyclophosphamide, lower doses, FIG. 14)	increase in MN events over zero (control) values ([1]; high doses of cyclophosphamide (50-200 μg/g body weight tested) at t=0 and t=48 hrs, one million total cells) [events]	Mns (96 hr) [2]	ΔMns (T96 - T0) [2]
O=P1(N(CCCl)CCCl)NCCCO1 (centres unmarked) [cyclophosphamide]	dose response relationship is evident; also recorded: good dose response relationship is obtained	data at the lower doses clearly supports the conclusion that clastogenic action was present	~1500		
COS(C)(=O)=O [MMS, methyl methanesulfonate]				1416 MNs per 500,000 cells and 1394 MNs per 500,000 cells and 1282 MNs per 500,000 cells and 1535 MNs per 500,000 cells	535 MNs per 500,000 cells and 563 MNs per 500,000 cells and 657 MNs per 500,000 cells and 399 MNs per 500,000 cells and 520 MNs per 500,000 cells and 535 ± 107 MNs per 500,000 cells
